Data: patent publication US7811760B2, “Vector and method for detecting the change in transcription amount” (priority 2006, dated 2010)

Biological target: T1, aryl hydrocarbon receptor (Rattus norvegicus, UniProt P41738, Q794H)
T1 construct: The SD-line rat AhR gene-coding region was amplified from the reverse-transcribed sample by means of PCR; V5-His (C-terminal tag of vector pcDNA4/V5-His B); expressed in transfected cells; host or cells: mouse neuroblastoma Neuro2a, transient transfection with LIPOFECTAMINE 2000
T1 sequence (P41738 10-853 Q794H): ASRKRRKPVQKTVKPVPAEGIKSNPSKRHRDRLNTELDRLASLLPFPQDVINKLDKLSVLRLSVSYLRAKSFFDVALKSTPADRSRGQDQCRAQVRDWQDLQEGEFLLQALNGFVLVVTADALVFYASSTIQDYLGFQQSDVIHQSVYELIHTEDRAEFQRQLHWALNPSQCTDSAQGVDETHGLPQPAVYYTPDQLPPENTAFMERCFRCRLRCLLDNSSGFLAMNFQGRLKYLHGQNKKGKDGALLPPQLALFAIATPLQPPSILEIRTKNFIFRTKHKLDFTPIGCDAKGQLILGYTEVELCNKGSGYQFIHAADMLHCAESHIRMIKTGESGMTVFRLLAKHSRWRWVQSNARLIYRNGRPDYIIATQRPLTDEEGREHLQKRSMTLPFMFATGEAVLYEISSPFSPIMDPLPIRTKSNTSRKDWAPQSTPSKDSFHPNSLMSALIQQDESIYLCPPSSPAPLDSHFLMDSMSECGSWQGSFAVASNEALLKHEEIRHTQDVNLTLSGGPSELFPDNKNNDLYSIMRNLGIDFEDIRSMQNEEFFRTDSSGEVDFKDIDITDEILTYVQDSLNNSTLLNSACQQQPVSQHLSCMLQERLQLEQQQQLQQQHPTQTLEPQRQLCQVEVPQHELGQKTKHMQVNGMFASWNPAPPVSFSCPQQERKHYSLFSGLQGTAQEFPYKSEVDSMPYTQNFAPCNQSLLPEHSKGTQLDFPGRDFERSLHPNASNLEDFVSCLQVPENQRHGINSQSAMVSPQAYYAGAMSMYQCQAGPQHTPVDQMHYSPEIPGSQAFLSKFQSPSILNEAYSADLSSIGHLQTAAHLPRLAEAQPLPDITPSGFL
Experiment: Reporter gene assay in Neuro2a with vectors having TH transcriptional regulatory regions different in length
Type: cell-based, SD-line rat
Conditions: 10 nM TCDD
Method: Shorter fragments of TH transcriptional regulatory region (i.e., 2.0 kbp, 1.5 kbp, 1.0 kbp and 500 bp of fragments) were prepared by PCR using the 2.5 kbp of the TH transcriptional regulatory region incorporated into PGV-THp25 as a template. The following different forward primers were used for each fragment: 2.0-kbp fragment:
As the reverse primer, a common primer (5′-[…]-3′ (SEQ ID No: 17)) was used. Recognition sequence for a restriction enzyme KpnI was added to the terminal of each forward primer, and recognition sequence for a restriction enzyme NheI was added to the terminal of the reverse primer, in order to facilitate incorporation of the PCR amplification fragments into the vector. Pyrobest DNA polymerase (Takara Bio Inc.) was used in the PCR. The amplified TH transcriptional regulatory region fragments were digested with restriction enzymes KpnI and NheI, and subjected to electrophoresis on agarose. The corresponding bands were purified with a QIAQUICK Gel Extraction Kit (manufactured by Qiagen) and incorporated into PGV-B2 vector (TOYO B-NET) previously digested with KpnI and NheI.
These vectors were introduced into Neuro2a by a method similar to Example 3. The obtained cell was exposed to 10 nM TCDD, and the change in the expression amount of the reporter gene was examined in the cell (FIG. 3).
For narrowing down the region involved in transcriptional regulation by the test substance, shorter fragments of the transcriptional regulatory region (i.e., 400 bp, 300 bp, 200 bp and 100 bp of fragments) were prepared by PCR using the 500 bp of the TH transcriptional regulatory region as a template. The following forward primers were used for each fragment.
As the reverse primer, a common primer (5′-[…]-3′ (SEQ ID No: 17)) was used. Recognition sequence for a restriction enzyme KpnI was added to the terminal of each forward primer, and recognition sequence for a restriction enzyme NheI was added to the terminal of the reverse primer. The DNA fragments were amplified by using Pyrobest DNA polymerase (Takara Bio Inc.). […]

Compound: Clc1cc2c(cc1Cl)Oc1cc(Cl)c(Cl)cc1O2 [TCDD, 2,3,7,8-tetrachlorodibenzo-p-dioxine]
- change in the expression amount of the reporter gene (response) (all vectors with TH transcriptional regulatory regions of 2.5 kbp to 500 bp): there was a response to TCDD
- change in the expression amount of the reporter gene (response) (vectors with TH transcriptional regulatory region of 500 bp, 400 bp or 300 bp): there was a response to TCDD
- change in the expression amount of the reporter gene (response) (vectors with region of 200 bp or 100 bp): no response to TCDD
